Assay results from patent US20150246902A1, “SUBSTITUED BENZOFURAN COMPOUNDS AND METHODS OF USE THEREOF FOR THE TREATMENT OF VIRAL DISEASES” (priority 2011, published 2015).

Experiments:
HCV replicon genotype 1a = experiment: microbe, parasite or virus in culture; format: cell-based; conditions: Hepatitis C virus, 96 h, HCV genotype 1a replicon cells, 96 hours incubation, NS3/4A ELISA readout
HCV replicon genotype 1b = experiment: microbe, parasite or virus in culture; format: cell-based; conditions: Hepatitis C virus, 96 h, HCV genotype 1b replicon cells, 96 hours incubation, NS3/4A ELISA readout

SMILES	IC50 (HCV replicon genotype 1a) [nM]	IC50 (HCV replicon genotype 1b) [nM]
CNC(=O)c1c(-c2ccc(F)cc2)oc2cc(N(C)S(C)(=O)=O)c(-c3ccc4[nH]nc(-c5ccc(C(F)(F)F)cc5)c4c3)cc12 [Compound 75]	8	7.3
CNC(=O)c1c(-c2ccc(F)cc2)oc2cc(N(C)S(C)(=O)=O)c(-c3ccc4ccn(-c5ccc(F)cc5F)c4n3)cc12 [Compound 66]	2270	225
CNC(=O)c1c(-c2ccc(F)cc2)oc2cc(N(C)S(C)(=O)=O)c(-c3cc4c(cn3)ncn4-c3cc(F)cc(F)c3)cc12 [Compound 45]	94.8	14.4
CNC(=O)c1c(-c2ccc(F)cc2)oc2cc(N(C)S(C)(=O)=O)c(-c3ccc4[nH]cc(-c5ccncc5)c4c3)cc12 [Compound 71]	21.5	4.5
CNC(=O)c1c(-c2ccc(F)cc2)oc2cc(N(C)S(C)(=O)=O)c(-c3ccc4[nH]c(-c5ccccc5)nc4c3)cc12 [Compound 102]	14.6	5.1
CNC(=O)c1c(-c2ccc(F)cc2)oc2cc(N(C)S(C)(=O)=O)c(-c3ccc4ccn(-c5ccccc5)c4c3)cc12 [Compound 63]	23.5	7.2
CNC(=O)c1c(-c2ccc(F)cc2)oc2cc(N(C)S(C)(=O)=O)c(-c3ccc4ncn(-c5ccc(OC(F)(F)F)cc5)c4c3)cc12 [Compound 17]	37.6	12.8
CNC(=O)c1c(-c2ccc(F)cc2)oc2cc(N(C)S(C)(=O)=O)c(-c3ccc4[nH]c(=O)n(-c5ccc(F)cc5)c4c3)cc12 [Compound 82]	23	4.9
CNC(=O)c1c(-c2ccc(F)cc2)oc2cc(N(C)S(C)(=O)=O)c(-c3ccc4ncn(-c5ccc(F)cn5)c4c3)cc12 [Compound 35]	35.2	5.9
CNC(=O)c1c(-c2ccc(F)cc2)oc2cc(N(C)S(C)(=O)=O)c(-c3ccc4ncc(-c5ccc(C(F)(F)F)cc5)n4n3)cc12 [Compound 94, 2-(4-fluorophenyl)-N-methyl-6-(N-methylmethylsulfonamido)-5-(3-(4-(trifluoromethyl)phenyl)imidazo[1,2-b]pyridazin-6-yl)benzofuran-3-carboxamide]	75.7	12.3
CNC(=O)c1c(-c2ccc(F)cc2)oc2cc(N(C)S(C)(=O)=O)c(-c3ccc4ncn(-c5ccc(F)cc5)c4c3)cc12 [Compound 15]	5.5	1.2
CNC(=O)c1c(-c2ccc(F)cc2)oc2cc(N(C)S(C)(=O)=O)c(-c3cc(F)c4ncn(-c5cc(F)c(F)c(F)c5)c4c3)cc12 [Compound 31]	3.4	3.1
CNC(=O)c1c(-c2ccc(F)cc2)oc2cc(N(C)S(C)(=O)=O)c(-c3ccc4ncn(C5CCCN(C(=O)OC(C)(C)C)C5)c4c3)cc12 (centres unmarked) [Compound 24]	760	82.6
CNC(=O)c1c(-c2ccc(F)cc2)oc2cc(N3CCCC3=O)c(-c3ccc4ncn(-c5ccccc5)c4c3)cc12 [Compound 77, 2-(4-fluorophenyl)-N-methyl-6-(2-oxopyrrolidin-1-yl)-5-(1-phenyl-1H-benzo[d]imidazol-6-yl)benzofuran-3-carboxamide]	235	32.6
CNC(=O)c1c(-c2ccc(F)cc2)oc2cc(N(C)S(C)(=O)=O)c(-c3ccc4[nH]cc(-c5ccccc5)c4c3)cc12 [Compound 70, 2-(4-fluorophenyl)-N-methyl-6-(N-methylmethylsulfonamido)-5-(3-phenyl-1H-indol-5-yl)benzofuran-3-carboxamide]	17.8	11.3
CNC(=O)c1c(-c2ccc(F)cc2)oc2cc(N(C)S(C)(=O)=O)c(-c3ccc4[nH]c(-c5ccccc5)nc4n3)cc12 [Compound 101]	79.1	17
CNC(=O)c1c(-c2ccc(F)cc2)oc2cc(N(C)S(C)(=O)=O)c(-c3ccc4c(ccn4-c4ccncc4)c3)cc12 [Compound 58]	7.2	2.6
CNC(=O)c1c(-c2ccc(F)cc2)oc2cc(N(C)S(C)(=O)=O)c(-c3ccc4oc(Cc5ccc(F)cc5)nc4n3)cc12 [Compound 84, 5-(2-(4-fluorobenzyl)oxazolo[4,5-b]pyridin-5-yl)-2-(4-fluorophenyl)-N-methyl-6-(N-methylmethylsulfonamido)benzofuran-3-carboxamide]	53.7	8.6
CNC(=O)c1c(-c2ccc(F)cc2)oc2cc(N(C)S(C)(=O)=O)c(-c3cccc4nc(-c5ccc(F)cc5)oc34)cc12 [Compound 86]	714	304
CNC(=O)c1c(-c2ccc(F)cc2)oc2cc(N(C)S(C)(=O)=O)c(-c3ccc4ncn(-c5ccc(Cl)cc5)c4c3)cc12 [Compound 10]	4	3.6
CNC(=O)c1c(-c2ccc(F)cc2)oc2cc(N(C)S(C)(=O)=O)c(-c3cc(F)c4ncn(-c5cc(F)cc(F)c5)c4c3)cc12 [Compound 30]	6.3	2.8
CNC(=O)c1c(-c2ccc(F)cc2)oc2cc(N(C)S(C)(=O)=O)c(-c3cc(F)c4nc(C)n(-c5ccc(F)c(C(N)=O)c5)c4c3)cc12 [Compound 109, 5-(1-(3-carbamoyl-4-fluorophenyl)-4-fluoro-2-methyl-1H-benzo[d]imidazol-6-yl)-2-(4-fluorophenyl)-N-methyl-6-(N-methylmethylsulfonamido)benzofuran-3-carboxamide]	110	21.1

SMILES	IC50 (HCV replicon genotype 1a) [nM]	IC50 (HCV replicon genotype 1b) [nM]
CNC(=O)c1c(-c2ccc(F)cc2)oc2cc(N(C)S(C)(=O)=O)c(-c3ccc4c(ccn4-c4ccc(C(F)(F)F)cc4)c3)cc12 [Compound 56]	224	30.8
CNC(=O)c1c(-c2ccc(F)cc2)oc2cc(N(C)S(C)(=O)=O)c(-c3ccc4ncn(-c5cccc(OC)c5)c4c3)cc12 [Compound 4]	26.5	2.5
CNC(=O)c1c(-c2ccc(F)cc2)oc2cc(N(C)S(C)(=O)=O)c(-c3ccc4ncc(-c5ccc(F)cc5)n4n3)cc12 [Compound 95]	85.9	44
CNC(=O)c1c(-c2ccc(F)cc2)oc2cc(N(C)S(C)(=O)=O)c(-c3ccc4ccn(-c5cc(F)cc(F)c5)c4n3)cc12 [Compound 65]	1520	115
CNC(=O)c1c(-c2ccc(F)cc2)oc2cc(N(C)S(C)(=O)=O)c(-c3cc(F)c4ncn(-c5ccc(F)c(F)c5)c4c3)cc12 [Compound 29]	5	3.3
CNC(=O)c1c(-c2ccc(F)cc2)oc2cc(N(C)S(C)(=O)=O)c(-c3ccc4ncn(-c5cccc(C(F)(F)F)c5)c4c3)cc12 [Compound 8]	27.7	3.9
CNC(=O)c1c(-c2ccc(F)cc2)oc2cc(N(C)S(C)(=O)=O)c(-c3cn4c(-c5ccc(F)cc5)cnc4cn3)cc12 [Compound 91, 2-(4-fluorophenyl)-5-(3-(4-fluorophenyl)imidazo[1,2-a]pyrazin-6-yl)-N-methyl-6-(N-methylmethylsulfonamido)benzofuran-3-carboxamide]	48.2	8.1
CNC(=O)c1c(-c2ccc(F)cc2)oc2cc(N(C)S(C)(=O)=O)c(-c3ccc4ccn(-c5ccc(F)cc5)c4c3)cc12 [Compound 59]	15.3	5.2
CNC(=O)c1c(-c2ccc(F)cc2)oc2cc(N(C)S(C)(=O)=O)c(-c3cc(F)c4nc(C)n(-c5ccc(F)c(C#N)c5)c4c3)cc12 [Compound 32]	5.3	3.1
CNC(=O)c1c(-c2ccc(F)cc2)oc2cc(N(C)S(C)(=O)=O)c(-c3ccc4c(ccn4C(=O)OC(C)(C)C)c3)cc12 [Compound 104, tert-butyl 5-(2-(4-fluorophenyl)-3-(methylcarbamoyl)-6-(N-methylmethylsulfonamido)benzofuran-5-yl)-1H-indole-1-carboxylate]	179	18.9
CNC(=O)c1c(-c2ccc(F)cc2)oc2cc(N(C)S(C)(=O)=O)c(-c3ccc4c(ccn4-c4ccccc4)c3)cc12 [Compound 53]	82	12.5
CNC(=O)c1c(-c2ccc(F)cc2)oc2cc(N(C)S(C)(=O)=O)c(-c3cc(F)c4ncn(-c5ccccc5)c4c3)cc12 [Compound 20]	6.1	2.4
CNC(=O)c1c(-c2ccc(F)cc2)oc2cc(N(C)S(C)(=O)=O)c(-c3ccc4ncn(-c5cccc(Cl)c5)c4c3)cc12 [Compound 12]	11.7	2.6
CNC(=O)c1c(-c2ccc(F)cc2)oc2cc(N(C)S(C)(=O)=O)c(-c3ccc4nc(C)n(-c5ccc(F)cc5)c4c3)cc12 [Compound 19]	12.8	2.2
CNC(=O)c1c(-c2ccc(F)cc2)oc2cc(N(C)S(C)(=O)=O)c(-c3ccc4[nH]nc(-c5ccc(F)cc5)c4c3)cc12 [Compound 73, 2-(4-fluorophenyl)-5-(3-(4-fluorophenyl)-1H-indazol-5-yl)-N-methyl-6-(N-methylmethylsulfonamido)benzofuran-3-carboxamide]	3.9	3.8
CNC(=O)c1c(-c2ccc(F)cc2)oc2cc(N(C)S(C)(=O)=O)c(-c3ccc4cnn(-c5ccc(C(F)(F)F)cc5)c4c3)cc12 [Compound 107]	8.3	6.1
CNC(=O)c1c(-c2ccc(F)cc2)oc2cc(N(C)S(C)(=O)=O)c(-c3ccc4ncn(C5CCN(C(=O)OC(C)(C)C)CC5)c4c3)cc12 [Compound 23]	36.7	8.2
CNC(=O)c1c(-c2ccc(F)cc2)oc2cc(N(C)S(C)(=O)=O)c(-c3ncc4ncn(-c5ccc(C#N)cc5)c4n3)cc12 [Compound 42]	1520	299
CNC(=O)c1c(-c2ccc(F)cc2)oc2cc(N(C)S(C)(=O)=O)c(-c3ccc4ccn(-c5ccncc5)c4c3)cc12 [Compound 51]	34.6	7.8
CNC(=O)c1c(-c2ccc(F)cc2)oc2cc(N(C)S(C)(=O)=O)c(-c3cnc4ccn(-c5ccc(Cl)cc5)c4c3)cc12 [Compound 50]	3.2	4.1
CNC(=O)c1c(-c2ccc(F)cc2)oc2cc(N(C)S(C)(=O)=O)c(-c3cn4c(-c5ccc(C(F)(F)F)cc5)cnc4cn3)cc12 [Compound 92]	12.9	5.1
